Entries after “also recorded” stand apart in the source; their conditions may differ.
Columns and labels:
[1] = Metabolic stability in mouse plasma; format: in vitro ADME; conditions: after 1 h at 37 °C, 100 μM substrate
Experimental: Because of the lack of systemic activity of compound 23, we evaluated the in vitro plasmatic and hepatic metabolic stability. To this aim, compound 23 was exposed to mouse plasma and mouse liver microsome (MLM) fractions, and the residual substrate was measured after 1 h. Under these conditions, the residual substrate was about 97% and 90% in plasma and microsomes, respectively, denoting that this molecule suffers from mild hydrolysis of the ester group.
The standard incubation mixture (100 μL final volume) was carried out by dissolving the tested substrate (100 μM) in DMSO (5% final volume) in preincubated plasma at 37 °C. The mixture was shaken for 60 min at 37 °C. Control incubations were carried out without substrate. Each incubation was stopped by addition of 200 μL of ice‐cold acetonitrile, vortexed, and centrifuged at 13 000 r.p.m. for 10 min. The supernatants were analyzed by LC‐UV [68].
The metabolic stability of the compound 23 was determined in vitro by measuring the residual peak area after incubation by LC‐UV analysis. Samples were further processed by LC‐HRMS equipment for metabolite profiling. Raw data files were processed using both XCALIBUR® and COMPOUND DISCOVERER 3.2® software (Thermo Scientific) using a customized workflow for the detection and identification of the expected and unknown metabolites (Fig. S80).

[2] = system: oxaliplatin‐induced peripheral cold allodynia in mice; test: Dry ice test in oxaliplatin-induced cold allodynia; format: in vivo, mouse; conditions: 5 mg·kg^−1 i.p., 30 and 90 min after administration, vs vehicle, oxaliplatin-treated mice
Experimental: Given the inhibitory activity of compound 23 and the antinociceptive effects of TRPM8 antagonists described in models of oxaliplatin (OXP)‐induced neuropathy, we conducted a behavioral experiment in mice to assess the antinociceptive effects of compound 23 after repeated oxaliplatin administration. Oxaliplatin was intraperitoneally (i.p.) administered every other day for 5 days at 6 mg·kg^−1, reaching a total accumulative dose of 18 mg·kg^−1. […] The OXP‐induced sensitization to cold stimuli was also evident with the dry ice test, as evidenced by the significant reduction in the latency to cold stimulation through the application of a dry ice pellet against the paw on a glass surface (Fig. 8B, P < 0.05 Before OXP vs. After OXP). […]
The systemic effect of compound 23 was assessed after intraperitoneal administration at 5 mg·kg^−1, dissolved in a solution of 2% Cremophor and 5% DMSO in saline, with a volume of 10 mL·kg^−1. […] Nociceptive sensitivity was evaluated for 30‐ and 90‐min postinjection using the acetone drop test (7 days after the first oxaliplatin dose) and the dry ice test (9 days after the last oxaliplatin dose).
The dry ice test was conducted as previously described with some modifications. […] To determine the threshold value for each mouse, the latency to paw withdrawal was recorded for each hindpaw and subsequently averaged. […]

hTRPA1 = molecular target: T1, hTRPA1 (Homo sapiens, UniProt O75762); test: Whole-cell patch-clamp of AITC-evoked currents in HEK293 cells expressing hTRPA1; format: cell-based; conditions: −60 mV
T1 construct: expressed in transfected cells; host or cells: HEK293 (transient, Lipofectamine 3000)
T1 sequence (O75762 whole entry): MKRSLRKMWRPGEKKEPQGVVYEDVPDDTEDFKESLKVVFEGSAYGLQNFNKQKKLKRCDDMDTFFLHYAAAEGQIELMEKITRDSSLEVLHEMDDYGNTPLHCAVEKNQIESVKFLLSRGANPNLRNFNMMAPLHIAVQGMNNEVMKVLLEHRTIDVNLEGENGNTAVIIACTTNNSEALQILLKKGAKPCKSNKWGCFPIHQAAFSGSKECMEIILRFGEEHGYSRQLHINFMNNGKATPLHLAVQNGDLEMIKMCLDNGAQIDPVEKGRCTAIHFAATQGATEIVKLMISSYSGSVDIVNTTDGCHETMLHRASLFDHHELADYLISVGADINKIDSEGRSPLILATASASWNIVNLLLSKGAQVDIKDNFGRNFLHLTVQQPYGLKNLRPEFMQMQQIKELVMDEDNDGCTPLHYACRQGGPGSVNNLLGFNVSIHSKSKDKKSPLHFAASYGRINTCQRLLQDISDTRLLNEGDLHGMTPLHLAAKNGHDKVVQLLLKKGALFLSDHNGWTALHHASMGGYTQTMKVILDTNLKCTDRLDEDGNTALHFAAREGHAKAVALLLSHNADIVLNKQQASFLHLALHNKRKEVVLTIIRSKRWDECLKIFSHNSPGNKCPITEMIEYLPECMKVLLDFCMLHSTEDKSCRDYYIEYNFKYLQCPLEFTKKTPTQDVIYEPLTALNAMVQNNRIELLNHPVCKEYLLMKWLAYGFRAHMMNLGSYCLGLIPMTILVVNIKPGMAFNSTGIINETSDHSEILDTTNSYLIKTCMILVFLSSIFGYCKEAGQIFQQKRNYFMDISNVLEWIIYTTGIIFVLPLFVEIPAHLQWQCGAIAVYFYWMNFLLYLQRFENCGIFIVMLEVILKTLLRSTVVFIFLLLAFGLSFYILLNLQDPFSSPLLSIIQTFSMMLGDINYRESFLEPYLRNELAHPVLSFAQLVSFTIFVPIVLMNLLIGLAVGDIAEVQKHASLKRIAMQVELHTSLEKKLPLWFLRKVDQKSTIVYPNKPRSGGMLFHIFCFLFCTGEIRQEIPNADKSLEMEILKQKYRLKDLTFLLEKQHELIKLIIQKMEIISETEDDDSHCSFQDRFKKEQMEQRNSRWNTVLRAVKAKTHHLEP
Experimental: To evaluate receptor selectivity, we investigated the activity of compound 23 on recombinant hTRPV1 and hTRPA1 channels recombinantly expressed in HEK293 cells (Fig. 4). We choose these thermosensory channels because of their structural similarity and expression in peripheral nociceptive terminals. In addition, some ligand cross‐interaction within these channels has been reported.
Recording through patch‐clamp techniques was performed on HEK293 cells cultured in DMEM GlutaMax with 10% FBS and 1% P/S. The cell lines were authenticated following the standardization of STR Profiling guidelines (ANSI/ATCC ASN‐0002‐2022) using the CLA Identifier Plus PCR Amplification Kit (Thermo Fisher‐A44660) to analyze 16 highly variant human STRs. The cells were confirmed to be mycoplasma‐free. These cells were transiently transfected with plasmids encoding hTRPV1, hTRPM8, or hTRPA1 using Lipofectamine 3000. Transfected cells were seeded on 12 mm Ø glass coverslips treated with poly‐L‐lysine solution and recorded 2 days post‐transfection. The intracellular pipette solution included (in mM) 150 NaCl, 3 MgCl2, 5 EGTA, and 10 HEPES, pH 7.2 with CsOH, while the extracellular solution contained (in mM) 150 NaCl, 6 CsCl, 1 MgCl2, 1.5 CaCl2, 10 glucose, and 10 HEPES, pH 7.4 with NaOH. An EPC‐10 amplifier with Patchmaster software was used in whole‐cell experiments. Patch pipettes, created from thin‐wall borosilicate capillary glass tubing, were pulled with a Micropipette puller to a final resistance of 2–8 MΩ when filled with the internal solution. Recordings were acquired at 10 kHz and low‐pass filtered at 3 kHz, discarding recordings with leak currents > 200pA or series resistance > 20 MΩ. In voltage‐clamp recordings, cells were held at a constant potential, and the application of modulators was carried out using a gravity‐driven perfusion system. […] Leak currents were not subtracted, and conductance was calculated using the equation: G = I/(V − V r), where I is the measured ionic current, V is the applied voltage, and V r is the reversal potential that for the ionic conditions used was set to 0 mV. […]

- residual substrate in mouse plasma [1]: about 97%
- block of hTRPA1‐evoked (AITC) current (hTRPA1; 5 μM compound, 60 μM AITC): ≈ 60%
- IC50 (hTRPA1; AITC-evoked current, n = 8, read-out: IC50 of hTRPA1 current blockade): 3.04 ± 2.01 µM
Structure (SMILES): O=C(COC(=O)c1ccccc1-c1ccccc1)NC12CC3CC(CC(C3)C1)C2 [Compound 23, 2‐((3S,5S,7S)‐adamantan‐1‐ylamino)‐2‐oxoethyl [1,1′‐biphenyl]‐2‐carboxylate]
- effect on withdrawal latency to dry ice, systemic treatment [2]: did not exhibit cold antinociceptive effects; also recorded: did not significantly affect
